Entries after “also recorded” stand apart in the source; their conditions may differ.
Key:
[1] = system: mouse embryonic fibroblasts (MEFs); experiment: Proliferation/cytotoxicity in mouse embryonic fibroblasts, 2D culture; format: cell-based
[2] = system: Id3; experiment: Compound screen: BMP4-induced Id3 expression, Western blot; format: cell-based, murine; settings: B16-F10 and Ret cells, BMP4 10 ng/ml and compound simultaneously, 24 h, rated relative to CBD
Protocol: To screen compounds with an inhibitory effect on Id1 and Id3 expression, cells were simultaneously stimulated with BMP4 (10 ng/ml, 315-27, Peprotech) and substances at the indicated concentrations for 24 h. DMSO served as a solvent control. Effects on Id1 and Id3 expression levels were analysed by Western blotting.
(§1) Western blot analysis was performed using standard methods. The following antibodies were used for protein detection: Id1 (195-14, CalBioreagents), Id3 (17-3, CalBioreagents), β-actin (AC-15, Sigma Aldrich), Vinculin (VIN-11-5, Sigma Aldrich). Protein bands were detected using HRP conjugated secondary antibodies (P0447, P0448, Agilent Technologies) and enhanced chemiluminescence (32106, Thermo Fisher Scientific).
B16-F10 and Ret melanoma cells were treated with BMP4 to induce Id1 and Id3 expression, and simultaneously treated with each of the compounds individually for a 24 h period.

[3] = system: HUVECs; experiment: HUVEC proliferation, CyQUANT assay; format: cell-based, Human; settings: dose-dependent manner (FIG. 11)
Protocol: HUVECs (A) and LECs (B) were cultivated in endothelial cell growth medium. Cells were incubated with the indicated concentrations of X6632. Incubation with DMSO served as a solvent control. After cultivation for the indicated time periods, cells were stained with a CyQUANT™ Cell Proliferation Assay Kit (Thermo Fisher Scientific). The CyQUANT™ dye emits fluorescence after excitation at 485 nm when incorporated in double-stranded DNA, allowing DNA content to be used as a measure of cell numbers. Plates were incubated for 15 min at 37° C. to allow the CyQUANT™ dye to incorporate into DNA. Fluorescence was measured by excitation at 485 nm and detection of emission at 530 nm at 25 positions in each well (signal intensity) using a Tecan Infinite M200 reader.

[4] = system: B16-F10 melanoma cells; experiment: Tumor growth and initiation in vivo, B16-F10; design: species or system mice
Description: (§2) B16-F10 (A) or Ret (B) cells were co-injected with Matrigel into syngeneic mice. […] Numbers indicate the number of animals with a tumor in each group. Bar graphs show the mean tumor volume in each group at the day when the first animal had reached the legal tumor size limit. Kaplan-Meier curves show the percentage of tumor-free animals in percent as a measure for tumor initiation.
(§3) Cells were harvested using trypsin/EDTA and washed in PBS. The indicated numbers of living melanoma cells were subcutaneously injected into the flank of syngeneic mice in 100 μl PBS. For co-injection experiments, the indicated number of living cells was resuspended in 100 μl Matrigel HC (10 mg/ml, #354262, Corning Inc.), and subcutaneously injected into the flank. Tumor volume was calculated using the formula 4/3π (d1/2×d2/2×d3/2), where d1−d3 represents the diameter of the tumor in three dimensions. […] All animal experiments were approved by the local authorities, and performed according to the German legal requirements. Tumor initiating cell (TIC) frequency and p-values were calculated using ELDA software.
(§4) To investigate the anti-tumor properties of the selected Id1/Id3-inhibiting compounds, groups of experimental mice (8 per group) were injected subcutaneously with B16-F10 or Ret melanoma cells. […] Melanoma initiation and growth was assessed over a period of 90 days.

[5] = system: Ret melanoma cells; experiment: Tumor growth and initiation in vivo, Ret; design: species or system mice
Description: as §2, §3, §4

[6] = system: B16-F10 and Ret cells; experiment: 3D Matrigel assay; format: cell-based, murine; settings: daily application in 3D Matrigel
Protocol: X8166 inhibits melanoma cell growth in 3D Matrigel. B16-F10 (A) or Ret (B) control or CRISPR/Cas9 Id1/Id3 cells were seeded in 3D Matrigel (10 mg/ml) and grown for six days before analysis. B16-F10 or Ret cells were treated daily with DMSO or X8166 (7.5 μM). The number of colonies at six positions of each well of a 48-well plate were counted in each z-level (5-10 z-levels were imaged per position).
Cells (2×10^3) were mixed with Matrigel to obtain 150 μl of a cell/Matrigel (10 mg/ml, #354262, Corning Inc.) solution, which was seeded into a well of a 48-well plate. The gel was allowed to solidify at 37° C. for 30 min and was subsequently overlaid with 500 μl complete growth medium. After six days of culture, images were captured using a Leica DMI6000 B microscope at six different x/y positions in every well, and a minimum of five horizontal layers (z levels) at each position, in order to get every cell in focus for image analysis. Image analysis was performed using Fiji software as follows: First, images were transformed into 8-bit files (pixel values from 0 (black) to 255 (white)). The scale was set to distance=0, known=0, pixel=1, and unit=pixel global. Outlines of each colony in focus in every image were detected using the integrated semi-automatic magic wand tool. Once outlines were matching the morphology of the colony were obtained, the colony was filled white (pixel value 255) using the fill function. Thresholding of pixel values (threshold=255) allowed black (background) and white (colonies) images of the filled colonies to be obtained. The “Analyze particles” function was applied to measure the area and perimeter of colonies with a minimum pixel size of 1500. An invasive index was calculated as follows: Invasive index=(perimeter)^2/area, resulting in a unitless measure of invasiveness.

[7] = system: Id1; experiment: Id1 expression in LECs, Western blot; format: cell-based; settings: indicated concentrations, 24 hours (FIG. 10B)
Protocol: Human umbilical vein endothelial cells (HUVECs) and lymphatic endothelial cells (LECs) were cultivated in EBM™-2 Endothelial Cell Growth Basal Medium supplemented with EGM™-2 MV Microvascular Endothelial Cell Growth Medium-2 SingleQuots™ Kit (both Lonza, catalogue numbers CC-3156 and CC4176, respectively), hereafter referred to as endothelial cell growth medium. HUVECs and LECs were cultivated in the presence of the indicated concentrations of X6632, or with DMSO as a solvent control. After 24 hours, cells were harvested. Lysates were western blotted and probed with antibodies against Id1 and Id3. Western blots probed with vinculin antibodies served as loading controls.
as §1
The effect of X6632 on Id1 and Id3 expression in cultivated proliferating human umbilical vein endothelial cells (HUVECs) was investigated. […] LDN-193189, an antagonist of BMP receptor isotypes ALK2 and ALK3, served as a positive control reference for inhibition of Id1 and Id3 expression.

[8] = system: B16-F10 and Ret cells; experiment: Proliferation of melanoma cells in 2D culture; format: cell-based, murine

## CCCCc1cc2c(O)cc(C3(CCCC)CCCCC3)cc2oc1=O [X6632, 7-(1-Butylcyclohexyl)-5-hydroxy-3-butyl-2H-chromen-2-one]
[1]
  Proliferation / cytotoxicity, non-transformed MEFs: strongly inhibited
[2]
  Inhibitory effect on Id3 protein expression: more potent
[2]; listed as X 6632
  Inhibitory effect on Id3 protein expression: strongest inhibitory activities
[3]
  Proliferation of HUVECs: inhibited
[4]; B16-F10 cells co-injected with Matrigel, syngeneic mice, daily i.p. first 14 days, compared to DMSO
  Melanoma growth and initiation: significantly inhibit; also recorded: potent inhibitors
[4]; B16-F10 cells, 8 mice per group, assessed over 90 days
  Number of animals with tumors: three
[4]; B16-F10 experiment, daily i.p. first 14 days
  Tumor growth and initiation compared to CBD: significantly more effective
[5]; Ret cells co-injected with Matrigel, syngeneic mice, daily i.p. first 14 days, compared to DMSO
  Melanoma growth and initiation: significantly inhibit; also recorded: potent inhibitors
[5]; Ret cells, 8 mice per group, assessed over 90 days
  Number of mice that did not develop any tumors: 1 mice
[5]; Ret experiment, daily i.p. first 14 days
  Tumor growth and initiation compared to CBD: trend towards reduced tumor initiation and growth
[6]
  3D assays could not be performed with daily application, reason: cytotoxicity
[7]
  Expression of Id1 protein: inhibits
[8]
  Proliferation / cytotoxicity, melanoma cells: strongly inhibited

From patent US20220259172A1, “CHEMICAL INHIBITORS OF ID PROTEINS FOR THE TREATMENT OF CANCER AND OTHER DISEASES” (Universität Heidelberg, priority 2019, published 2022)
